Structures are written as SMILES.

The target in the assay is phosphodiesterase 4. The assay can be described thus: Phosphodiesterase 4 inhibition, SPA with enzyme preparation from human PMNL. It counts as biochemical. The settings on record: cytosolic PDE4 from human PMNL, 0.5 μM [3H]-cAMP, 37° C., 30 minutes; read-out: PDE 4 inhibition IC50. The procedure:
PDE4 activity is determined using enzyme preparations from human polymorphonuclear […] (PMNL). Human blood (buffy coats) was anticoagulated with citrate. A centrifugation at 700×g at room temperature (RT) for 20 minutes separates the platelet-rich plasma in the supernatant from the erythrocytes and leukocytes. The PMNLs for the PDE4 determination are isolated by a subsequent dextran sedimentation and in gradient centrifugation with Ficoll-Paque. After the cells have been washed twice, the erythrocytes which are still present are lysed by adding 10 ml of hypotonic buffer (155 mM NH4Cl, 10 mM NaHCO3, 0.1 mM EDTA, pH=7.4) at 4° C. within 6 minutes. The still intact PMNLs are then washed twice with PBS and lysed by ultrasound. The supernatant from a centrifugation at 4° C. and 48000×g for one hour contains the cytosolic fraction of PDE 4 and is employed for the PDE4 measurements.
The phosphodiesterase activity is assayed using a modified Amersham Pharmacia Biotech method, an SPA (scintillation proximity assay).
The reaction mixtures contain buffer (50 mM Tris-HCl (pH 7.4), 5 mM MgCl2, 100 μM cGMP), the inhibitors in variable concentrations and the appropriate enzyme preparation. The reaction is started by adding the substrate, 0.5 μM [^3H]-cAMP. The final volume is 100 μl. Test substances are made up as stock solutions in DMSO. The DMSO concentration in the reaction mixture is 1% v/v. The PDE activity is unaffected at this DMSO concentration. After the reaction has been started by adding substrate, the samples are incubated at 37° C. for 30 minutes. The reaction is stopped by adding a defined amount of SPA beads, and the samples are counted after one hour in a Beta counter. The nonspecific enzymic activity (the blank) is determined in the presence of 100 μM rolipram and subtracted from the test results. The incubation mixtures for the PDE4 assay contain 100 μM cGMP in order to inhibit any contamination by PDE 3.
Turning to `O=C(Nc1c(Cl)cncc1Cl)C(=O)c1cn(Cc2ccc(F)cc2)c2c1ccc[n+]2[O-]` [Compound 1, N-(3,5-Dichloropyridin-4-yl)-[1-(4-fluorobenzyl)-7-oxo-7-azaindol-3-yl]glyoxylamide], the IC50 amounted to 52 nM.

As for `O=C(Nc1c(Cl)c[n+]([O-])cc1Cl)C(=O)c1cn(Cc2ccc(F)cc2)c2c1ccc[n+]2[O-]` [Compound 4, N-(3,5-Dichloro-1-oxopyridin-4-yl)-[1-(4-fluorobenzyl)-7-oxo-7-azaindol-3-yl]glyoxylamide], the IC50 is 751 nM.

With `O=C(Nc1c(Cl)cccc1Cl)C(=O)c1cn(Cc2ccccc2Cl)c2c1ccc[n+]2[O-]` [Compound 2, N-(2,6-Dichlorophenyl)-[1-(2-chlorobenzyl)-7-oxo-7-azaindol-3-yl]glyoxylamide], the IC50 is 48 nM.

With `O=C(Nc1c(Cl)c[n+]([O-])cc1Cl)C(=O)c1cn(Cc2ccc(F)cc2)c2ncccc12` [Compound 3, N-(3,5-Dichloro-1-oxopyridin-4-yl)-[1-(4-fluorobenzyl)-7-azaindol-3-yl]glyoxylamide], the IC50 is 8 nM.

(Values after patent US7211583B2, “7-azaindoles and the use thereof as therapeutic agents” (Elbion AG, priority 2003, dated 2007).)
